Here are results for one compound from patent US20060019938A1, “Estrogen administration for treating male cognitive dysfunction or improving male cognitive function” (priority 2003, published 2006).

Common to all, as to assay type: in vivo, human
The subject of data set [1] is men with androgen-independent prostate cancer. The data set is described as follows: Paragraph Recall test (immediate and delayed; long-term/verbal memory). The method, then:
One illustrative declarative memory test for assessing the medial temporal lobe memory system is known as a Paragraph Recall Task. This task is a subtest of the Weschler Memory Scale—Revised. A subject is read a short story and then immediately asked to recall the story. After an approximate 30 minute retention interval, they are asked to recall the story again. The recall responses are scored for number of story items correctly recalled and there is a standard scoring system. There are two stories for each administration so the total score is the total of both stories combined; one for immediate memory; and one for delayed memory.
(§1) Estradiol was transdermally administered to nineteen men with androgen-independent prostate cancer following a protocol outlined below.
(§2) Standard prophylactic breast irradiation was offered to all patients prior to therapy to reduce the risk of gynecomastia. Six Climara® estradiol patches (25.0 cm^2, 7.6 mg estradiol per patch) were adhered to the patients once every 7 days for a period of at least 4 weeks for a dosage of 0.6 mg estradiol/day (in vivo estradiol delivery per patch is 0.1 mg/day).
(§3) Certain cognitive functions of the patients were evaluated prior to starting estradiol treatment and approximately 4 weeks after starting estradiol treatment. Specifically, memory was assessed using immediate and delayed Paragraph Recall test and working memory was assessed using the SOP and Trails tests. Serum estradiol concentration was also measured after approximately 4 weeks of treatment, as well as other standard monitoring measurements. The Paragraph Recall test was performed as described above. The SOP test was performed as described above and was computer-administered with 8 and 10 card sets. Each card of the set was depicted on a computer screen and the subject selected the drawing for each card by pressing a corresponding number on the keyboard. The Trails test was performed as described above.
(§4) The monitoring was similar as described above in connection with example 1. Certain cognitive functions of the patients were evaluated at the beginning of the study and then approximately 4 weeks later. In the case of patients receiving estradiol treatments, the patients were evaluated prior to the initial estradiol and then approximately 4 weeks after starting estradiol treatment. Verbal memory was assessed using the immediate Paragraph Recall test and working memory was assessed using the Trails tests. Serum estradiol concentration was also measured after approximately 4 weeks of treatment, as well as other standard monitoring measurements.

For data set [2] the test system is unchanged. As to the kind of experiment: Trails working memory test. The source says: A further illustrative working memory test is known as the Trails test. This test is a dot-to-dot paper pencil test where the subject connects dots (1-2-3-4 etc.). On a second measure they connect dots but the dots are labeled alternately in letters and numbers so they have to shift their cognitive set and keep in mind where they are in each set: 1 to A to 2 to B to 3 etc. Their score is the number of seconds to complete the dot to dot. Estradiol was transdermally administered to nineteen men with androgen-independent prostate cancer following a protocol outlined below. Standard prophylactic breast irradiation was offered to all patients prior to therapy to reduce the risk of gynecomastia. […] Certain cognitive functions of the patients were evaluated prior to starting estradiol treatment and approximately 4 weeks after starting estradiol treatment. Specifically, memory was assessed using immediate and delayed Paragraph Recall test and working memory was assessed using the SOP and Trails tests. Serum estradiol concentration was also measured after approximately 4 weeks of treatment, as well as other standard monitoring measurements. […] Certain cognitive functions of the patients were evaluated at the beginning of the study and then approximately 4 weeks later. […] Verbal memory was assessed using the immediate Paragraph Recall test and working memory was assessed using the Trails tests. […]

The test system is the same in data set [3]. As to the kind of experiment: Subject Ordered Pointing (SOP) working memory test.
From the text: An illustrative working memory test is known as Subject Ordered Pointing (SOP). SOP is described, for example, in Janowsky et al., “Sex steroids modify working memory,” J Cogn Neuroscience 12(3):407-14, 2000 and Petrides et al., “Deficits on subject-ordered tasks after frontal- and temporal-lobe lesions in man,” Neuropsychologia 20:249-62, 1982. In general, subjects are presented with stacks of cards (6, 8, 10 or 12 cards/sets). […] The subject is to touch one drawing on each card in any order, but not touch the same drawing on subsequent cards in the set. Subjects err when they touch a drawing that had been touched on a previous card in the set. Therefore, the subject has to remember previous drawings touched while planning a future response. Subjects repeat each 6, 8, 10, and 12 card set three times. The total number of errors across all card sets is the measure of interest. […] Subjects are instructed to do the task at their own pace, and to try to not go too quickly or too slowly.
as §1, §2
as §3, with “Each card of the set was depicted on a computer screen and the subject selected the drawing for each card by pressing a corresponding number on the keyboard. The Trails test was performed as described above.” left out

The subject of data set [4] is prostate cancer patients progressing on ADT. The data set is described as follows: Profile of Mood States (POMS) test, confusion subscale. Particulars: Example 2, prostate cancer patients progressing on ADT. An excerpt:
Research subjects consisted of healthy men, and men who have been diagnosed with prostate cancer that were between the ages of 45-100. The subjects were classified into three groups: (1) Prostate cancer patients progressing on ADT and before and after starting second line therapy with transdermal estradiol as described above; (2) Prostate cancer patients continuing ADT; and (3) Age-matched healthy controls. The treatment regimen of these men was not modified as part of their participation in this study. Exclusion criteria included currently taking hormone replacement, active malignancy other than prostate cancer or non-melanoma skin cancer, major surgery within last 4 weeks, and score less than 25 on the Mini-Mental State Exam (a screening measure for dementia). The participant characteristics are shown below in Table 3.
The estradiol administration was the same as in example 1.
Mood was assessed using a Profile of Mood States (POMS) test as described in McNair et al, Profile of mood states manual (Education and Industrial Testing Service, San Diego (1971)). Participants completed the POMS test at both testing sessions (i.e., beginning of study and 4 weeks later). The scale asks participants to rate how they felt in the last week. Responses are categorized into six subscales (tension-anxiety, depression, anger, fatigue, confusion and vigor). […]

A short description of data set [5]: Serum estradiol concentration during transdermal estradiol treatment. The method, then:
Standard prophylactic breast irradiation was offered to all patients prior to therapy to reduce the risk of gynecomastia. Six […]® estradiol patches (25.0 cm^2, 7.6 mg estradiol per patch) were adhered to the patients once every 7 days for a period of at least 4 weeks for a dosage of 0.6 mg estradiol/day (in vivo estradiol delivery per patch is 0.1 mg/day). Certain cognitive functions of the patients were evaluated prior to starting estradiol treatment and approximately 4 weeks after starting estradiol treatment. Specifically, memory was assessed using immediate and delayed Paragraph Recall test and working memory was assessed using the SOP and Trails tests. Serum estradiol concentration was also measured after approximately 4 weeks of treatment, as well as other standard monitoring measurements. The Paragraph Recall test was performed as described above. The SOP test was performed as described above and was computer-administered with 8 and 10 card sets. Each card of the set was depicted on a computer screen and the subject selected the drawing for each card by pressing a corresponding number on the keyboard. The Trails test was performed as described above. The monitoring was similar as described above in connection with example 1. Certain cognitive functions of the patients were evaluated at the beginning of the study and then approximately 4 weeks later. In the case of patients receiving estradiol treatments, the patients were evaluated prior to the initial estradiol and then approximately 4 weeks after starting estradiol treatment. Verbal memory was assessed using the immediate Paragraph Recall test and working memory was assessed using the Trails tests. Serum estradiol concentration was also measured after approximately 4 weeks of treatment, as well as other standard monitoring measurements.

Data set [6] has as its system men with androgen-independent prostate cancer. The data set is described as follows: Toxicity monitoring (thromboembolic complications) during transdermal estradiol. As to conditions: 0.6 mg estradiol/day transdermal, at time of most recent analysis. The method, then:
as §2, §3

Data set [7] in a line: Serum testosterone (total and free) before and after transdermal estradiol. Particulars: Visit 2, after about 4 weeks transdermal estradiol, Example 2.
From the text: Research subjects consisted of healthy men, and men who have been diagnosed with prostate cancer that were between the ages of 45-100. The subjects were classified into three groups: (1) Prostate cancer patients progressing on ADT and before and after starting second line therapy with transdermal estradiol as described above; (2) Prostate cancer patients continuing ADT; and (3) Age-matched healthy controls. The treatment regimen of these men was not modified as part of their participation in this study. […]
as §4

[8] abbreviates: Example 1, men with AIPC treated with estradiol.
[9] abbreviates: Example 2, prostate cancer patients progressing on ADT.
Where [10] appears, read: on estradiol vs pre-treatment, about 4 weeks.
Where [11] appears, read: on estrogen, about 4 weeks, 0.6 mg estradiol/day transdermal, men with AIPC.
Setting [12] is: on estrogen, about 4 weeks, 0.6 mg/day transdermal, data from 18 subjects.

In the case of `C[C@]12CC[C@@H]3c4ccc(O)cc4CC[C@H]3[C@@H]1CC[C@@H]2O` [Estradiol, estra-1,3,5(10)-triene-3,17β-diol], the long-term memory result in data set [1] (setting [8]) is given as “significant improvement in their long-term memory”. The “verbal memory performance (immediate Paragraph Recall, FIG. 2)” value in data set [1] (setting [9]) is on record as “improved verbal memory performance”. Moreover, in data set [1] (setting [10]), the “delayed Paragraph Recall test score improvement” value stood at 27% and the “immediate Paragraph Recall test score improvement” value stood at 19%. Moreover, in data set [1] (setting [11]), the “Paragraph Recall (delay; # correct)” value is on record as 18.8 # correct and the “Paragraph Recall (immediate; # correct)” value was 22.9 # correct. For the same compound, in data set [2] (setting [9]), the “working memory (Trails test, FIG. 1)” value is “did not affect working memory”. The “Trails (seconds B-A)” value in data set [2] (on estrogen, about 4 weeks, 0.6 mg/day transdermal, data from 15 subjects) was 69.9 s. In addition, the “working memory (Subject-Ordered and Trails tests)” value in data set [3] (setting [8]) is “no change in working memory”. In data set [3] (setting [12]), the “Subject Ordered (# of errors), 8 item” value is 6.3 # of errors and the “Subject Ordered (# of errors), 10 item” value was 7.0 # of errors. Also, the “confusion (POMS, FIGS. 3 and 4)” value in data set [4] is recorded as “trend for men receiving estradiol to report a decrease in confusion”. Besides, the “Estradiol (serum)” value in data set [5] (Visit 2, after about 4 weeks transdermal estradiol, Example 2) is reported as 428.8 (280.7) pg/mL. Also, the concentration at 1 month in data set [5] (human, serum, other: transdermal, 0.6 mg/day, 1 month of treatment, Example 1, read-out: Estradiol, mean ± 95% CI) was 0.46 ± 0.126 ng/mL. Besides, the concentration at 2 months in data set [5] (human, serum, other: transdermal, 0.6 mg/day, 2 months of treatment, Example 1, read-out: Estradiol, mean ± 95% CI) came to 0.371 ± 0.115 ng/mL. The “thromboembolic complications or other significant toxicity” value in data set [6] is recorded as “no thromboembolic complications or other significant toxicity issues”. In data set [7], the “Free T” value was 3.5 (1.9) pmol/L and the “Total T” value is 9.7 (3.9) ng/dL.
